# Assay results reported in paper PMC11233548 (Communications Biology, 2024).
# Residues, ends and D or L forms follow the SMILES beside them.
# Experiments:
# GST-B-RBD = GST-B-RBD (Homo sapiens, UniProt P15056); assay: Competitive fluorescence polarization, displacement of F-L5UR from GST-B-RBD; format: binding; details: competitive fluorescence polarization with F-L5UR; Fig. 2e: F-L5UR (10 nM), GST-B-RBD (15 µM); method: 5 nM F-L5UR, 200 nM RBD; pH 7.4; 30 min, ~22 °C; n = 3
# C-RBD = target: T1, C-RBD (Homo sapiens, UniProt P04049); assay: Competitive fluorescence polarization, displacement of F-L5UR from C-RBD; format: binding; details: F-L5UR (5 nM), C-RBD (200 nM), pH 7.4, 30 min, ~22 °C, n = 3
# T1 construct: GST-tagged C-Raf-RBD (residues 50–134 of human C-Raf); GST (N, cleaved yes); made in house; host or cells: E. coli BL21 Star (DE3)pLysS
# B-RBD = target: T2, B-RBD (Homo sapiens, UniProt P15056); assay: QRET assay, Eu-L5URcore binding to B-RBD; details: Eu-L5URcore (29 nM), B-RBD twofold dilutions, MT2 quencher, 10 mM HEPES pH 7.4, 10 mM NaCl, 30 min, ~22 °C, time-resolved luminescence, n = 2, read-out: IC50
# T2 construct: GST-tagged B-Raf-RBD (residues 155–227 of human B-Raf); GST (N); made in house; host or cells: E. coli BL21 Star (DE3)pLysS
# Description: The QRET assays were modified from our previously described quenching luminescence assays[69]–[71]. Ac-K-L5URcore was conjugated with nonadentate europium chelate, {2,2′,2′′,2’“-{[4′-(4’“-isothiocyanatophenyl)-2,2′,6′,2′′-terpyridine-6,6′′-diyl]bis(methylene-nitrilo)}tetrakis(acetate)}europium(III) (QRET Technologies, Finland) via the epsilon amine of the N-terminal lysine that was added to the L5UR-core peptide sequence and purified with analytical reverse-phase HPLC. The current homogeneous QRET binding assay is based on the quenching of non-bound Eu-K-L5URcore with MT2 quencher (QRET Technologies), while bound labeled peptide is luminescent. In the assay, purified B-RBD or Gal1 were twofold diluted in an assay buffer containing 10 mM HEPES pH 7.4 and 10 mM NaCl added in 5 μL to a white low-volume, round bottom 384-well plate. Eu-K-L5UR core peptide (29 nM), mixed with MT2 according to the manufacturer’s instructions in the assay buffer supplemented with 0.01% (v/v) Triton X-100, was added in 5 μL volume to wells, and incubated for 30 min at ~22 °C on a shaker. The luminescence was measured with Tecan Spark multimode microplate reader (Tecan, Austria) in time-resolved mode using λexcitation 340 ± 40 nm and λemission 620 ± 10 nm with 800 μs delay and 400 μs window times.
# Chain of GST-B-RBD (P15056 155-227): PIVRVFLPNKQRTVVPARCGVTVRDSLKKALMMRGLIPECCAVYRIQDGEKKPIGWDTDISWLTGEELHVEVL
# T2 sequence (P15056 155-227): as above
smiles,measurement,setting,value
CC(=O)N[C@@H](CO)C(=O)N[C@@H](CCCNC(=N)N)C(=O)N[C@@H](CO)C(=O)N[C@@H](CO)C(=O)N[C@@H](CC(C)C)C(=O)N[C@@H](CCCNC(=N)N)C(=O)N[C@@H](CO)C(=O)N[C@@H](CCCNC(=N)N)C(=O)N[C@@H](Cc1c[nH]c2ccccc12)C(=O)NCC(=O)N[C@@H](CCCNC(=N)N)C(=O)N[C@@H](Cc1ccccc1)C(=O)N[C@@H](CC(C)C)C(=O)N[C@@H](CC(C)C)C(=O)N[C@@H](CCC(N)=O)C(=O)N[C@@H](CCCNC(=N)N)C(=O)NCC(=O)N[C@@H](CO)C(=O)N[C@@H](Cc1c[nH]c2ccccc12)C(=O)N[C@H](C(=O)NCC(=O)N1CCC[C@H]1C(=O)N[C@@H](CCCNC(=N)N)C(N)=O)[C@@H](C)O [L5URcore] (Ac-SRSSLRSRWGRFLLQRGSWTGPR-NH2),IC50,GST-B-RBD,41 ± 1 µM
same,IC50,C-RBD,14 ± 6 µM
same,EC50 (B-RBD binding to Eu-L5URcore),B-RBD,18 ± 1 µM
